Assay results published in ChEMBL document CHEMBL6109142 (J Med Chem, 2025).
The source made the active and inactive calls. No cut-off for these calls is given here.

Key:
[1] = system: SARS-CoV-2; assay: Antiviral activity against SARS-CoV-2 pseudotyped with delta spike protein infected in human Calu-3 cells assessed as prevention of virus-like particle cellular entry at 300 nM preincubated with cells for 3 hrs followed by viral infection and measured after 72 hrs by ONE-Glo-Ex luciferase assay; assay type: functional, organism-based; conditions: Severe acute respiratory syndrome coronavirus 2, time 75.0 hrs
[2] = system: SARS-CoV-2; assay: Antiviral activity against SARS-CoV-2 JN.1 infected in human Calu-3 cells preincubated with cells for 3 hrs followed by viral infection and measured after 48 hrs by immunostaining based analysis; assay type: functional, organism-based; conditions: Severe acute respiratory syndrome coronavirus 2, JN.1, Calu-3
[3] = target: T1, Transmembrane protease serine 2 (Homo sapiens, UniProt O15393); assay: Inhibition of recombinant TMPRSS2 (unknown origin) extracted from baculovirus infected in Sf9 cells assessed as residual activity using Boc-QAR-AMC as substrate at 1 nM measured after 1 hr by fluorescence based analysis relative to control
T1 sequence (O15393 1-255 limits assumed): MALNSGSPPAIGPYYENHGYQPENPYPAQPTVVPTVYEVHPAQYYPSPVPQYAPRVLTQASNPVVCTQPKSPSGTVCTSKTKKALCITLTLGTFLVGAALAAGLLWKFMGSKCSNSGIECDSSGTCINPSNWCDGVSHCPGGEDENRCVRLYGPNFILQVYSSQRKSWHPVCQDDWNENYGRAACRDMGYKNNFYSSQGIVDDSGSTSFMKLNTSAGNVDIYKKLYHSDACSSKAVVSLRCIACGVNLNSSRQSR
T1 sequence (O15393 256-492 limits assumed): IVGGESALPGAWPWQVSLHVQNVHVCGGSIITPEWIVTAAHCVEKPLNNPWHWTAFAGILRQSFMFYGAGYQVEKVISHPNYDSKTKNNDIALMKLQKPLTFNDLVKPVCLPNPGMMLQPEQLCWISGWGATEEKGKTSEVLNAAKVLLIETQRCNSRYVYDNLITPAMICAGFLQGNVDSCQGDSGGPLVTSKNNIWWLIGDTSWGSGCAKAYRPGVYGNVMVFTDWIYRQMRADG

[4] = system: Calu-3; assay: Cytotoxicity against human Calu-3 cells assessed as cell viability at 10 uM measured after 72 hrs by luminescence based Cell-Titer-Glo assay; assay type: toxicity; conditions: calu-3, 72 h
[5] = system: SARS-CoV-2; assay: Antiviral activity against SARS-CoV-2 pseudotyped with delta spike protein infected in human Calu-3 cells assessed as prevention of virus-like particle cellular entry at 300 nM preincubated with cells for 3 hrs followed by viral infection and measured after 72 hrs by ONE-Glo-Ex luciferase assay relative to control; assay type: functional, Severe acute respiratory syndrome coronavirus 2; conditions: time 75 hrs
[6] = system: SARS-CoV-2; assay: Antiviral activity against SARS-CoV-2 EG.5.1 infected in human Calu-3 cells assessed as reduction in residual intracellular nucleocapsid value at 1 uM preincubated with cells for 3 hrs followed by viral infection and measured after 48 hrs by immunostaining based analysis; assay type: functional, organism-based; conditions: Severe acute respiratory syndrome coronavirus 2, time 51.0 hrs
[7] = system: SARS-CoV-2; assay: Antiviral activity against SARS-CoV-2 EG.5.1 infected in human Calu-3 cells preincubated with cells for 3 hrs followed by viral infection and measured after 48 hrs by immunostaining based analysis; assay type: functional, organism-based; conditions: Severe acute respiratory syndrome coronavirus 2, EG.5.1, Calu-3
[8] = target: Procathepsin L (Homo sapiens, UniProt P07711); assay: Inhibition of recombinant human C-terminal 6 his-tagged Cathepsin L assessed as inhibition constant using Z-LR-AMC as peptide substrate incubated for 1 hr by fluorescence based analysis
[9] = target: T1, Transmembrane protease serine 2; assay: Inhibition of recombinant das TMPRSS2 (unknown origin) extracted from baculovirus infected in Sf9 cells assessed as inhibition constant using Boc-QAR-AMC as substrate measured after 1 hr by fluorescence based analysis
[10] = target: T2, Suppressor of tumorigenicity 14 protein (Homo sapiens, UniProt Q9Y5Y6); assay: Inhibition of Matriptase (unknown origin) assessed as inhibition constant using Boc-QAR-AMC as substrate incubated for 1 hr by fluorescence based analysis
T2 sequence (Q9Y5Y6 whole entry): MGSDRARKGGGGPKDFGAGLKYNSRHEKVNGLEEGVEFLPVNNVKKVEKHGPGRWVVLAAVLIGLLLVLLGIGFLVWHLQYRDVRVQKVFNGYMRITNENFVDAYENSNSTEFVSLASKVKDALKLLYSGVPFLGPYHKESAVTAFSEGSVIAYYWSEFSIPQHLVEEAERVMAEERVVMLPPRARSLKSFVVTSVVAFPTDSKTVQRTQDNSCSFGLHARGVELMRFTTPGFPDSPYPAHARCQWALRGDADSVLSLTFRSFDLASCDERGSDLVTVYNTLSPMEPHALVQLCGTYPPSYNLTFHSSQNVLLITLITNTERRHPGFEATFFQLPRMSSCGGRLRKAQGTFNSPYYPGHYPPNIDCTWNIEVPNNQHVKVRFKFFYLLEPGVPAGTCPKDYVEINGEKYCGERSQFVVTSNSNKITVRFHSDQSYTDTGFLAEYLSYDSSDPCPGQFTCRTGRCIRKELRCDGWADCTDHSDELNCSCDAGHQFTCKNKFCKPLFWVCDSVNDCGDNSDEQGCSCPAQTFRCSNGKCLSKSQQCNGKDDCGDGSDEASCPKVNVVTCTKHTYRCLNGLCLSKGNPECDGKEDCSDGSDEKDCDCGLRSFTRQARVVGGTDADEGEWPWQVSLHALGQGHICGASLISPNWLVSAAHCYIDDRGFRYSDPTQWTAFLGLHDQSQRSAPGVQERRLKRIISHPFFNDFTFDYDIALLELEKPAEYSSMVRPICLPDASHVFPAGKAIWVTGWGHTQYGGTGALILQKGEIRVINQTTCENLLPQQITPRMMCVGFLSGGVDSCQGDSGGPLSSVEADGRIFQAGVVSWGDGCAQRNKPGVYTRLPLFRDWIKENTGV

[11] = target: T1, Transmembrane protease serine 2; assay: Inhibition of recombinant TMPRSS2 (unknown origin) extracted from baculovirus infected in Sf9 cells using Boc-QAR-AMC as substrate measured after 1 hr by fluorescence based analysis
[12] = Cytotoxicity against human Calu-3 cells assessed as cell viability measured after 72 hrs by luminescence based Cell-Titer-Glo assay; assay type: toxicity
[13] = target: Coagulation factor X (Homo sapiens, UniProt P00742); assay: Inhibition of recombinant human C-terminal 10 his-tagged FXa extracted from baculovirus infected in Sf9 cells assessed as inhibition constant using Mca-RPKPVE-Nval-WRK(Dnp)-NH2 as substrate incubated for 1 hr by fluorescence based analysis
Chain of Coagulation factor X (P00742 41-179 limits assumed): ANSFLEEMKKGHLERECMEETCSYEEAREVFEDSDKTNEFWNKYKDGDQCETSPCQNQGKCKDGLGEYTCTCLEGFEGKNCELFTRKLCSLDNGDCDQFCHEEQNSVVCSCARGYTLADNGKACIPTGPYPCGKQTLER
Chain of Coagulation factor X (P00742 235-488 limits assumed): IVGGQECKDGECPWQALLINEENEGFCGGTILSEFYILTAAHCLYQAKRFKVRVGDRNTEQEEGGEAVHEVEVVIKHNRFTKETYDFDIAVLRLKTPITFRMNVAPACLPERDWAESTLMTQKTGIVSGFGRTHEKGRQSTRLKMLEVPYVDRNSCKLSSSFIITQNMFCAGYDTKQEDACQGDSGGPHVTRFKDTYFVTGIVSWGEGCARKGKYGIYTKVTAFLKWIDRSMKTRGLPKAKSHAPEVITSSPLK

[14] = Toxicity in C57BL/6J mouse at 5 mg/kg, ISIN (Intranasal) measured for 24 hrs; assay type: organism-based; conditions: in vivo, inhaled_or_intranasal
[15] = Half life in C57BL/6J mouse plasma at 5 mg/kg, ISIN (Intranasal) measured up to 24 hrs by LC-MS/MS analysis; assay type: ADME, organism-based; conditions: in vivo, inhaled_or_intranasal
[16] = Half life in C57BL/6J mouse plasma at 5 mg/kg, iv measured up to 24 hrs by LC-MS/MS analysis; assay type: ADME, organism-based; conditions: in vivo
[17] = target: T1, Transmembrane protease serine 2; assay: Inhibition of full length TMPRSS2 (unknown origin) expressed in African green monkey Vero E6 cells using Boc-QAR-AMC as substrate incubated for 24 hrs by microplate reader analysis; assay type: cell-based
[18] = Toxicity in C57BL/6J mouse at 5 mg/kg, iv measured for 24 hrs; assay type: organism-based; conditions: in vivo
[19] = system: SARS-CoV-2; assay: Antiviral activity against SARS-CoV-2 EG.5.1 infected in human Calu-3 cells assessed as reduction in residual intracellular nucleocapsid value at 1 uM preincubated with cells for 3 hrs followed by viral infection and measured after 48 hrs by immunostaining based analysis relative to control; assay type: functional, Severe acute respiratory syndrome coronavirus 2; conditions: time 51 hrs
[20] = Drug concentration in C57BL/6J mouse plasma measured after 15 mins; assay type: ADME; conditions: read-out: Drug uptake
[21] = Bioavailability in C57BL/6J mouse at 5 mg/kg, ISIN (Intranasal) measured up to 24 hrs by LC-MS/MS analysis; assay type: ADME, organism-based; conditions: in vivo, inhaled_or_intranasal

CC(=O)N[C@@H](CCC(N)=O)C(=O)N[C@@H](Cc1ccccc1)C(=O)N[C@@H](CCCNC(=N)N)C(=O)CN1CCCCC1
Activity [1]: Active

CS(=O)(=O)N[C@@H](CCC(N)=O)C(=O)N[C@@H](Cc1ccccc1)C(=O)N[C@@H](CCCNC(=N)N)C(=O)c1nc2ccccc2s1
EC50 [2]: 3.3 nM | Activity [3]: 13% | Activity [4]: Non-toxic | Activity [5]: 16% | Activity [6]: Active | EC50 [7]: 29.1 nM | inhibition [8]: inactive

CC(=O)N[C@@H](CCC(N)=O)C(=O)N[C@@H](Cc1ccccc1)C(=O)N[C@@H](CCCNC(=N)N)C(=O)c1nc2ccccc2[nH]1
Activity [1]: Active

C[C@H](NC(=O)[C@H](CCC(N)=O)NC(=O)CCCCNC(=N)N)C(=O)N[C@@H](CCCNC(=N)N)C(=O)c1nc2ccccc2s1
EC50 [2]: 2.8 nM | Ki [9]: 0.53 nM | Activity [3]: 46% | Activity [4]: Non-toxic | Activity [5]: 12% | Activity [6]: Active | EC50 [7]: 11.9 nM | Ki [10]: 0.16 nM | IC50 [11]: 2.4 nM | inhibition [8]: inactive

CCOC(=O)N[C@@H](CCCNC(=N)N)C(=O)N[C@@H](CCC(N)=O)C(=O)N[C@@H](Cc1ccccc1)C(=O)N[C@@H](CCCNC(=N)N)C(=O)c1nc2ccccc2s1
EC50 [2]: 1.3 nM | Ki [9]: 0.095 nM | Activity [3]: 3% | Activity [4]: Non-toxic | Activity [5]: 17% | Activity [6]: Active | EC50 [7]: 3.9 nM | IC50 [11]: 0.89 nM | Ki [8]: 695 nM

CS(=O)(=O)N[C@@H](CCC(N)=O)C(=O)N[C@@H](Cc1ccccc1)C(=O)N[C@@H](CCCNC(=N)N)C(=O)c1nccs1
EC50 [2]: 8.5 nM | Activity [3]: 11% | Activity [4]: Non-toxic | Activity [5]: 14% | CC50 at 72 h [12]: 110000 nM | Ki [13]: 9.2 nM | Activity [6]: Active | EC50 [7]: 21.7 nM | IC50 [11]: 0.87 nM | inhibition [8]: inactive

COCCC(=O)N[C@@H](CCC(N)=O)C(=O)N[C@@H](Cc1ccccc1)C(=O)N[C@@H](CCCNC(=N)N)C(=O)c1nc2ccccc2s1
EC50 [2]: 1.5 nM | Activity [3]: 2% | Activity [4]: Non-toxic | Activity [5]: 17% | Ki [13]: 102 nM | Activity [6]: Active | EC50 [7]: 4.1 nM | IC50 [11]: 0.59 nM | inhibition [8]: inactive

CN(C)C(=O)COC(=O)Cc1ccc(OC(=O)c2ccc(NC(=N)N)cc2)cc1 [CAMOSTAT]
EC50 [2]: 7.5 nM | CC50 at 72 h [12]: 110000 nM | EC50 [7]: 201 nM

N=C(N)NCCC[C@H](NC(=O)[C@H](Cc1ccccc1)NC(=O)[C@H](CCC(N)=O)NC(=O)OCc1ccccc1)C(=O)c1nccs1
Activity [14]: Non-toxic | EC50 [2]: 0.09 nM | Ki [9]: 0.03 nM | Activity [3]: 3% | Activity [4]: Non-toxic | Activity [5]: 13% | CC50 at 72 h [12]: 110000 nM | t1/2 [15]: 1.8 h | Activity [6]: Active | t1/2 [16]: 4.79 h | IC50 [17]: 0.59 nM | EC50 [7]: 0.3 nM | Activity [18]: Non-toxic | Activity [19]: 2.2% | concentration at 0.25 h [20]: 182 ng/mL | IC50 [11]: 0.35 nM | inhibition [8]: inactive | F [21]: 10.9%

CC(=O)N[C@@H](CCC(N)=O)C(=O)N[C@@H](Cc1ccccc1)C(=O)N[C@@H](CCCNC(=N)N)C(=O)c1nccn1C
Activity [1]: Active

N=C(N)NCCCCC(=O)N[C@@H](CCC(N)=O)C(=O)N[C@@H](Cc1ccccc1)C(=O)N[C@@H](CCCNC(=N)N)C(=O)c1nccs1
Activity [3]: 20% | Activity [4]: Non-toxic | Activity [5]: 20% | Activity [6]: Active | Activity [19]: 14% | IC50 [11]: 0.74 nM

CC(=O)N[C@@H](CCC(N)=O)C(=O)N[C@@H](CC1CCCCC1)C(=O)N[C@@H](CCCNC(=N)N)C(=O)c1nc2ccccc2s1
Activity [3]: 18% | Activity [4]: Non-toxic | Activity [5]: 13% | Activity [6]: Active | IC50 [11]: 1.3 nM
